We go through five compounds from ChEMBL document CHEMBL6078655, “Engineering of Novel Analogues That Are More Receptor-Selective and Potent than the Native Hormone, Insulin-like Peptide 5 (INSL5)” (J Med Chem, 2024).

Calls of active or inactive are those of the source. The calls are words filed in the database; no cut-off is given here. Where a SMILES comes first, the peptide text is derived from it. Bridges are numbered along the chain shown (N, C = ends). Roman numbers before positions name the chains, in order. [ ]: non-standard residue; d: D form. 1Nal = N[C@@H](Cc1cccc2ccccc12)C(=O)O; Agb = N=C(N)NCC[C@H](N)C(=O)O

Assay [1] concerns the target T1, Relaxin-3 receptor 1 (Homo sapiens, UniProt Q9NSD7).
T1 sequence (Q9NSD7 whole entry): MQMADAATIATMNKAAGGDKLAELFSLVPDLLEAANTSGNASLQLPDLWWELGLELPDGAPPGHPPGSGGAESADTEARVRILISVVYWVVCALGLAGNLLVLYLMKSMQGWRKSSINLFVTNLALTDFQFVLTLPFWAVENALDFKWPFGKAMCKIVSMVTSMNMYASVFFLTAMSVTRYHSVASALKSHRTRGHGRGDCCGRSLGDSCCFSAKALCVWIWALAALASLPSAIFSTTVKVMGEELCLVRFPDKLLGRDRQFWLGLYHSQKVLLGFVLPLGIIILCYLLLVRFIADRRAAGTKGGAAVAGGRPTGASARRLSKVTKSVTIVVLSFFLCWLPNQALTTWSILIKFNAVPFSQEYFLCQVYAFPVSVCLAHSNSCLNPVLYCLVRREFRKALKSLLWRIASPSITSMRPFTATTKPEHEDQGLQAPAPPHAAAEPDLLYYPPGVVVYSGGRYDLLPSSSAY
Put plainly: Binding affinity to SmBit-tagged RXFP3 (unknown origin) expressed in HEK cells assessed as inhibition constant incubated for 1 hr by NanoBiT assay. It is filed as cell-based.

Assay [2] has as its target T2, Relaxin-3 receptor 1 (Homo sapiens) (UniProt Q9NSD7).
T2 sequence (whole entry): T1 sequence (Q9NSD7 whole entry)
The experiment in a line: (§1) Agonist activity at RXFP3 (unknown origin) expressed in CHO cells co-transfected with pCRE-galactosidase reporter plasmid assessed as inhibition of forskolin-induced cAMP accumulation incubated for 6 hrs by reporter gene assay. It is filed as functional, cell-based. On the technique in general: cAMP levels reflect the balance of adenylyl cyclase and phosphodiesterase activity.

The target in assay [3] is T3, Relaxin-3 receptor 2 (Homo sapiens, UniProt Q8TDU9). The experiment in a line: Binding affinity to LgBiT-tagged RXFP4 (unknown origin) expressed in HEK cells assessed as inhibition constant incubated for 1 hr by NanoBiT assay. It is filed as cell-based.
T3 sequence (Q8TDU9 whole entry): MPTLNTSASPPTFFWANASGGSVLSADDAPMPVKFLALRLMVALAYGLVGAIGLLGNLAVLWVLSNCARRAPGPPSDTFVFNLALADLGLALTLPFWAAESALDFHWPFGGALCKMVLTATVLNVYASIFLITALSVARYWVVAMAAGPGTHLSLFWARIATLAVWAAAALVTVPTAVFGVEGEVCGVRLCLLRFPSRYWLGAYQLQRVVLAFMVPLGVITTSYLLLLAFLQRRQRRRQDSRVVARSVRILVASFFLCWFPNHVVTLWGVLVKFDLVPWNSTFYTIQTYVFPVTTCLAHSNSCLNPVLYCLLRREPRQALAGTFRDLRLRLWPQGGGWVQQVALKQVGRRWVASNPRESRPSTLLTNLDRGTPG
Assay [4] addresses T3, Relaxin-3 receptor 2. The experiment in a line: Agonist activity at RXFP4 (unknown origin) expressed in CHO cells co-transfected with pCRE-galactosidase reporter plasmid assessed as inhibition of forskolin-induced cAMP accumulation incubated for 6 hrs by reporter gene assay. Format: functional, cell-based.
A short description of assay [5]: Selectivity index, ratio of Ki for binding affinity to SmBit-tagged RXFP3 (unknown origin) expressed in HEK cells assessed as inhibition constant to Ki for binding affinity to LgBiT-tagged RXFP4 (unknown origin) expressed in HEK cells assessed as inhibition constant. Format: cell-based.
Assay [6] deals with T1, Relaxin-3 receptor 1. Described as §1. Format: functional, cell-based.
In assay [7] the target is T3, Relaxin-3 receptor 2. The experiment in a line: Agonist activity at RXFP4 in HEK293T cells assessed as beta-arrestin2 recruitment pretreated with coelenterazine for 10 mins followed by compound addition by BRET assay. Format: functional, cell-based.
Assay [8] concerns the target T3, Relaxin-3 receptor 2. Put plainly: Antagonist activity at RXFP4 in HEK293T cells assessed as beta-arrestin2 recruitment pretreated with coelenterazine for 10 mins followed by compound addition by BRET assay. It is filed as functional, cell-based. In general terms: Recruitment of arrestin is a read-out of receptor activation apart from second messengers.

As to `CC[C@H](C)[C@@H]1NC(=O)[C@H](Cc2ccc(O)cc2)NC(=O)[C@H]([C@@H](C)CC)NC(=O)[C@H](C(C)C)NC(=O)[C@H]([C@@H](C)O)NC(=O)[C@H](CCCNC(=N)N)NC(=O)[C@H]([C@@H](C)CC)NC(=O)[C@H](Cc2ccc(O)cc2)NC(=O)[C@H](CCC(=O)O)NC(=O)[C@H](CC(C)C)NC(=O)CNC(=O)[C@@H](N)CSSC[C@H](N)C(=O)N[C@@H]([C@@H](C)O)C(=O)N[C@@H](CC(=O)O)C(=O)NCC(=O)N[C@@H](CS)C(=O)N[C@H](CO)C(=O)N[C@@H](CCSC)C(=O)N[C@@H](CCCCN)C(=O)N[C@@H](CC(=O)O)C(=O)N[C@@H](CC(C)C)C(=O)N[C@@H](CO)C(=O)N[C@@H](C)C(=O)N[C@@H](CC(C)C)C(=O)N[C@H](C(=O)O)CSSC[C@@H](C(=O)N[C@@H](C)C(=O)NCC(=O)N[C@@H](CO)C(=O)N[C@@H](CCCNC(=N)N)C(=O)N[C@@H](Cc2c[nH]c3ccccc23)C(=O)O)NC1=O`, the Ki on Relaxin-3 receptor 1 [1] (read-out: Ki) came out at 589 nM; at Relaxin-3 receptor 2 [3], 11.2 nM. Besides, the outcome in assay [2] was inactive. For the same compound, the EC50 on Relaxin-3 receptor 2 [4] (read-out: EC50) was found to be 17.8 nM. Besides, the Ratio Ki in assay [5] came out at 52.5.

Consider `CC[C@H](C)[C@@H]1NC(=O)[C@H](Cc2ccc(O)cc2)NC(=O)[C@H]([C@@H](C)CC)NC(=O)[C@H](C(C)C)NC(=O)[C@H]([C@@H](C)O)NC(=O)[C@H](CCCNC(=N)N)NC(=O)[C@H]([C@@H](C)CC)NC(=O)[C@H](Cc2ccc(O)cc2)NC(=O)[C@H](CCC(=O)O)NC(=O)[C@H](CC(C)C)NC(=O)CNC(=O)[C@@H](N)CSSC[C@H](N)C(=O)N[C@@H]([C@@H](C)O)C(=O)N[C@@H](CC(=O)O)C(=O)NCC(=O)N[C@@H](CS)C(=O)N[C@H](CO)C(=O)N[C@@H](CCSC)C(=O)N[C@@H](CCCCN)C(=O)N[C@@H](CC(=O)O)C(=O)N[C@@H](CC(C)C)C(=O)N[C@@H](CO)C(=O)N[C@@H](C)C(=O)N[C@@H](CC(C)C)C(=O)N[C@H](C(=O)O)CSSC[C@@H](C(=O)N[C@@H](C)C(=O)N[C@@H](CO)C(=O)N[C@@H](CO)C(=O)N[C@@H](CCCNC(=N)N)C(=O)N[C@@H](Cc2c[nH]c3ccccc23)C(=O)O)NC1=O`, for which the Ki is 426 nM on Relaxin-3 receptor 1 [1] (read-out: Ki) and 8.71 nM on Relaxin-3 receptor 2 [3]. The result in assay [2] was inactive. For the same compound, on Relaxin-3 receptor 2 [4] (read-out: EC50), the EC50 is 8.32 nM. Further, the Ratio Ki in assay [5] stood at 49.

Turning to `CC[C@H](C)[C@@H]1NC(=O)[C@H](Cc2ccc(O)cc2)NC(=O)[C@H]([C@@H](C)CC)NC(=O)[C@H](C(C)C)NC(=O)[C@H]([C@@H](C)O)NC(=O)[C@H](CCCNC(=N)N)NC(=O)[C@H]([C@@H](C)CC)NC(=O)[C@H](Cc2ccc(O)cc2)NC(=O)[C@H](CCC(=O)O)NC(=O)[C@H](CC(C)C)NC(=O)CNC(=O)[C@@H](N)CSSC[C@H](N)C(=O)N[C@@H]([C@@H](C)O)C(=O)N[C@@H](CC(=O)O)C(=O)NCC(=O)N[C@@H](C)C(=O)N[C@@H](CO)C(=O)N[C@@H](CCSC)C(=O)N[C@@H](CCCCN)C(=O)N[C@@H](CC(=O)O)C(=O)N[C@@H](CC(C)C)C(=O)N[C@@H](CO)C(=O)N[C@@H](C)C(=O)N[C@@H](CC(C)C)C(=O)N[C@H](C(=O)O)CSSC[C@@H](C(=O)NCC(=O)NCC(=O)N[C@@H](CO)C(=O)N[C@@H](CCNC(=N)N)C(=O)N[C@@H](Cc2cccc3ccccc23)C(=O)O)NC1=O` (I: H-CGLEYIRTVIYICGGS[Agb][1Nal]-OH / II: H-CTDGASMKDLSALC-OH; disulfide I:1-II:1, I:13-II:14), the Ki on Relaxin-3 receptor 1 [1] (read-out: Ki) came out at 2190 nM; at Relaxin-3 receptor 2 [3] it was 1.32 nM. Also, the EC50 was > 10000 nM on Relaxin-3 receptor 1 [6] (cho, read-out: EC50); > 10000 nM at Relaxin-3 receptor 1 [6] (read-out: pEC50 (converted)); 9.12 nM at Relaxin-3 receptor 2 [4] (read-out: pEC50 (converted)); 40.7 nM at Relaxin-3 receptor 2 [7]. In assay [5], the Ratio Ki was found to be 1660. Besides, at Relaxin-3 receptor 2 [8], the outcome was inactive.

Consider `CC[C@H](C)[C@@H]1NC(=O)[C@H](Cc2ccc(O)cc2)NC(=O)[C@H]([C@@H](C)CC)NC(=O)[C@H](C(C)C)NC(=O)[C@H]([C@@H](C)O)NC(=O)[C@H](CCCNC(=N)N)NC(=O)[C@H]([C@@H](C)CC)NC(=O)[C@H](Cc2ccc(O)cc2)NC(=O)[C@H](CCC(=O)O)NC(=O)[C@H](CC(C)C)NC(=O)CNC(=O)[C@@H](N)CSSC[C@H](N)C(=O)N[C@@H]([C@@H](C)O)C(=O)N[C@@H](CC(=O)O)C(=O)NCC(=O)N[C@@H](CS)C(=O)N[C@H](CO)C(=O)N[C@@H](CCSC)C(=O)N[C@@H](CCCCN)C(=O)N[C@@H](CC(=O)O)C(=O)N[C@@H](CC(C)C)C(=O)N[C@@H](CO)C(=O)N[C@@H](C)C(=O)N[C@@H](CC(C)C)C(=O)N[C@H](C(=O)O)CSSC[C@@H](C(=O)NCC(=O)NCC(=O)N[C@@H](CO)C(=O)N[C@@H](CCCNC(=N)N)C(=O)N[C@@H](Cc2c[nH]c3ccccc23)C(=O)O)NC1=O`, for which the figures for the Ki at Relaxin-3 receptor 1 [1] (read-out: Ki) and at Relaxin-3 receptor 2 [3] were 603 nM and 2.29 nM, respectively. Moreover, the results for the EC50 on Relaxin-3 receptor 1 [6] (read-out: EC50), on Relaxin-3 receptor 2 [4] (read-out: EC50) and on Relaxin-3 receptor 2 [7] were 4790 nM, 1.17 nM and 22.4 nM, respectively. Further, the Ratio Ki in assay [5] turned out to be 263.

Regarding `CC[C@H](C)[C@@H]1NC(=O)[C@H](Cc2ccc(O)cc2)NC(=O)[C@H]([C@@H](C)CC)NC(=O)[C@H](C(C)C)NC(=O)[C@H]([C@@H](C)O)NC(=O)[C@H](CCCNC(=N)N)NC(=O)[C@H]([C@@H](C)CC)NC(=O)[C@H](Cc2ccc(O)cc2)NC(=O)[C@H](CCC(=O)O)NC(=O)[C@H](CC(C)C)NC(=O)CNC(=O)[C@@H](NC(=O)[C@H](CC(C)C)NC(=O)[C@H](CCCNC(=N)N)NC(=O)[C@@H](NC(=O)[C@H](CO)NC(=O)[C@H](CCC(=O)O)NC(=O)[C@@H](N)CCCCN)C(C)C)CSSC[C@H](N)C(=O)N[C@@H]([C@@H](C)O)C(=O)N[C@@H](CC(=O)O)C(=O)NCC(=O)N[C@@H](CS)C(=O)N[C@H](CO)C(=O)N[C@@H](CCSC)C(=O)N[C@@H](CCCCN)C(=O)N[C@@H](CC(=O)O)C(=O)N[C@@H](CC(C)C)C(=O)N[C@@H](CO)C(=O)N[C@@H](C)C(=O)N[C@@H](CC(C)C)C(=O)N[C@H](C(=O)O)CSSC[C@@H](C(=O)N[C@@H](C)C(=O)N[C@@H](CO)C(=O)N[C@@H](CO)C(=O)N[C@@H](CCCNC(=N)N)C(=O)N[C@@H](Cc2c[nH]c3ccccc23)C(=O)O)NC1=O`, the Ki was 195 nM on Relaxin-3 receptor 1 [1] (read-out: Ki), 295 nM at Relaxin-3 receptor 1 [1] (read-out: pKi (converted)) and 7.76 nM on Relaxin-3 receptor 2 [3]. Further, in assay [2], the result was inactive. Further, the EC50 on Relaxin-3 receptor 2 [4] (read-out: EC50) came out at 7.94 nM; at Relaxin-3 receptor 2 [7] it was 61.7 nM. In assay [5], the Ratio Ki came to 38.
